Results: US5008126A, “Long chain diol diesters as low calorie fat mimetics” (Nabisco Brands, Inc., priority 1989, dated 1991)

Assays:
[1] = system: porcine pancreatic lipase; test: in vitro digestibility (lipase hydrolysis, TLC densitometry); assay type: in vitro ADME; details: in 10 minutes; 37° C., pH 7.1 phosphate buffer with cholic acid
Procedure: (§1) This example outlines the procedure for estimating the in vitro digestibility of the long chain diol diesters of this invention.
(§2) 1. Buffer: A pH 7.1 phosphate buffer is prepared by dissolving 6.8 g. KH2 PO4 in 1 L. of millipore filtered water (to yield 0.05M phosphate). Fifty mg. Ca(NO3)2 and 5.0 g. cholic acid (Na salt, an ox bile isolate from Sigma) are added to give 300 microM Ca^++ and 0.5 % cholic acid in 0.05M phosphate. The pH is adjusted to approximately 7.1 with solid NaOH. Several drops of Baker "Resi-analyzed" toluene are added to prevent bacterial growth during storage at 3°-5° C.
(§3) 2. Lipase: About 15 mg./mL commercial porcine pancreatic lipase from U.S. Biochemical Corporation is dissolved in buffer.
(§4) 3. Substrates and Standards: A 1.0 mL volumetric flask is charged with an amount of lipid substrate calculated to give a concentration of 200 nanomoles per microliter in Baker "Resi-analyzed" toluene. (The proper concentration may be approximated by doubling the molecular weight of the lipid in question, dividing by 10, and diluting to the mark; this yields about 200 nanomoles per microliter.) This preparation affords the substrate to be used in the hydrolysis reactions. […]

[2] = caloric availability by in vivo animal feeding study (body weight gain); design: species or system male Sprague-Dawley rats; details: rats, diet of 50% fort and 21% test compound, 14 days; from weight gain versus corn oil base line
Excerpt: This example illustrates how the novel fat mimetics of this invention are screened for caloric availability by a carefully controlled in vivo animal feeding study.
An experimental relationship between total calories ingested and animal body weight gain is established by monitoring the body weight gain associated with consumption of a nutritionally balanced diet containing varying concentrations of a reference substance such as corn oil which has a known caloric availability. Correlations between total calories ingested and body weight gain are excellent (r=0.99).
Caloric availability of an unknown substance is evaluated by substituting a specific weight of the unknown substance for the reference substance and observing the body weight gain. The gain in body weight is equated to a total number of calories using the correlation previously established for the reference data. The estimated number of calories ingested are divided by the weight of unknown substance to give the apparent calories per gram for the unknown substance. Generally speaking, in these bioavailability studies, the degree of perianal pelt soiling correlates with reduced bioavailability.
The test animals are six-week-old male Sprague-Dawley rats obtained from the Portage, Mich. facility of the Charles River Laboratories, Inc. After acclimation for 15 days, the test duration is 14 days. […]

[3] = in vitro digestibility (lipase hydrolysis, TLC densitometry); assay type: in vitro ADME, porcine; details: pig, pancreatic lipase; in three hours; 37° C., pH 7.1 phosphate buffer with cholic acid; read-out: hydrolyzed (extent of hydrolysis by lipase)
Procedure: as §1, §2, §3, §4

Row | hydrolysis by lipase (in words) [1] | metabolised at 3 h [3] [%] | SMILES | caloric availability (kcal/gram upon being metabolized) [2]
1 | substantially hydrolyzed |  | CCCCCCCC/C=C\CCCCCCCC(=O)OCC(COC(=O)CCCCCCC/C=C\CCCCCCCC)OC(=O)CCCCCCC/C=C\CCCCCCCC [triolein, reference compound] | 
2 |  | ~20 | CCCCCCCC/C=C\CCCCCCCC(=O)OCC(CCCCCCCCCCCC)OC(=O)CCCCCCC/C=C\CCCCCCCC (stereo not drawn) [Example 1, 1,2 Tetradecane dioleate] | about 6.0 kcal/gram
